Assay results: ChEMBL document CHEMBL5226304, “Fused-azepinones: Emerging scaffolds of medicinal importance” (Eur J Med Chem, 2021)
Converted amounts (≈) assume the structure as drawn. Each block holds one compound with its values, some of them ahead of it.

Legend:
[1] = molecular target: Cyclin-dependent kinase 1/cyclin B (Homo sapiens, UniProt P06493); assay: Inhibition of CDK1/Cyclin B (unknown origin) in presence of gamma32P-ATP by scintillation counter analysis; type: protein-complex assay
[2] = molecular target: Cyclin-dependent kinase 5/CDK5 activator 1 (Homo sapiens, UniProt Q00535); assay: Inhibition of CDK5/p25 (unknown origin); type: protein-complex assay
[3] = Selectivity index, ratio of IC50 for CDK1/Cycline B (unknown origin) to IC50 for GSK3beta (unknown origin)
Homo sapiens [4] = organism: Homo sapiens; assay: Selectivity ratio of IC50 for Chk1 (unknown origin) to IC50 for (unknown origin)
[5] = Inhibition of MAPKK (unknown origin); design: species or system Homo sapiens
[6] = molecular target: Cyclin-dependent kinase 4/cyclin D1 (Homo sapiens, UniProt P11802); assay: Inhibition of CDK4/Cyclin D1 (unknown origin); type: protein-complex assay
[7] = molecular target: RAF proto-oncogene serine/threonine-protein kinase (Homo sapiens, UniProt P04049); assay: Inhibition of c-Raf (unknown origin)
[8] = Inhibition of cAMP-dependent protein kinase (unknown origin); design: species or system Homo sapiens
[9] = Inhibition of cGMP-dependent protein kinase (unknown origin); design: species or system Homo sapiens
L5178Y = assay: Cytotoxicity against mouse L5178Y cells by MTT assay; type: functional, cell-based
[10] = molecular target: Glycogen synthase kinase-3 beta (Rattus norvegicus, UniProt P18266); assay: Inhibition of recombinant recombinant rat GSK3beta using GS-1 peptide as substrate in presence of [gamma-32P]ATP measured after 30 mins incubation by scintillation counting analysis
MOLM-13 = assay: Antiproliferative activity against human MOLM-13 cells assessed as inhibition of proliferation measured after 96 hrs by alamerBlue assay; type: functional, cell-based
LAPC4 = assay: Antiproliferative activity against human LAPC4 cells assessed as inhibition of proliferation measured after 96 hrs by alamerBlue assay; type: functional, cell-based
[11] = molecular target: Mitogen-activated protein kinase kinase kinase 7 (Homo sapiens) (UniProt O43318); assay: Inhibition of MAP3K7 kinase (unknown origin) at 10 uM relative to control
KB 3-1 = assay: Cytotoxicity against human KB-3-1 cells by MTT assay; type: functional, cell-based
[12] = tested on: Human immunodeficiency virus 1; assay: Antiviral activity against HIV1 assessed as inhibition of LC5-RIC cells infection at 50 uM relative to control; type: functional
MCF7 = assay: Cytotoxicity against human MCF7 cells by MTT assay; type: functional, cell-based
MDA-MB-231 = assay: Cytotoxicity against human MDA-MB-231 cells by MTT assay; type: functional, cell-based
786-0 = assay: Antitumor activity against human 786-0 cells; type: functional
Integrin alpha-V/beta-3 = Integrin alpha-V/beta-3 (Homo sapiens, UniProt P05106+P06756); assay: Antagonist activity against human integrin alphaVbeta3 expressed in CHO-K1 cells measured after 4 hrs by Cell adhesion assay; type: cell-based
[13] = molecular target: Cyclin-dependent kinase 2/cyclin A (Homo sapiens, UniProt P24941); assay: Inhibition of CDK2/Cyclin A (unknown origin); type: protein-complex assay
Casein kinase I = assay: Inhibition of CK1 (unknown origin); type: protein assay, Homo sapiens
CDK9/Cyclin T = CDK9/Cyclin T (Homo sapiens, UniProt P50750); assay: Inhibition of CDK9/Cyclin T (unknown origin); type: protein-complex assay
[14] = molecular target: Dual specificity tyrosine-phosphorylation-regulated kinase 1A (Homo sapiens, UniProt Q13627)
Description: Inhibition of DYRK1A (unknown origin)

Protein kinase C (PKC) = assay: Inhibition of Protein kinase C (unknown origin); type: protein assay, Homo sapiens
Homo sapiens [15] = organism: Homo sapiens; assay: Inhibition of MPK (unknown origin) at 10 uM relative to control
[16] = molecular target: Serine/threonine-protein kinase PLK1 (Homo sapiens) (UniProt P53350); assay: Inhibition of PLK1 (unknown origin) at 10 uM relative to control
[17] = molecular target: Serine/threonine-protein kinase pim-1 (Homo sapiens) (UniProt P11309); assay: Inhibition of PIM1 (unknown origin) at 10 uM relative to control
[18] = molecular target: Mitogen-activated protein kinase kinase kinase 11 (Homo sapiens) (UniProt Q16584); assay: Inhibition of MLK3 (unknown origin) at 10 uM relative to control
[19] = molecular target: MAP/microtubule affinity-regulating kinase 3 (Homo sapiens) (UniProt P27448); assay: Inhibition of MARK3 (unknown origin) at 10 uM relative to control
[20] = molecular target: Aurora kinase B (Homo sapiens) (UniProt Q96GD4); assay: Inhibition of Aurora B (unknown origin) at 10 uM relative to control
[21] = molecular target: Serine/threonine-protein kinase Chk1 (Homo sapiens, UniProt O14757); assay: Inhibition of Chk1 (unknown origin)
THP-1 [22] = assay: Antiinflammatory activity in human THP-1 cells assessed as inhibition of LPS-stimulated IL2 production; type: functional, cell-based
THP-1 [23] = assay: Antiinflammatory activity in human THP-1 cells assessed as inhibition of LPS-stimulated TNFalpha production; type: functional, cell-based

Integrin alpha-V/beta-3, sequence (P05106 27-788 limits assumed): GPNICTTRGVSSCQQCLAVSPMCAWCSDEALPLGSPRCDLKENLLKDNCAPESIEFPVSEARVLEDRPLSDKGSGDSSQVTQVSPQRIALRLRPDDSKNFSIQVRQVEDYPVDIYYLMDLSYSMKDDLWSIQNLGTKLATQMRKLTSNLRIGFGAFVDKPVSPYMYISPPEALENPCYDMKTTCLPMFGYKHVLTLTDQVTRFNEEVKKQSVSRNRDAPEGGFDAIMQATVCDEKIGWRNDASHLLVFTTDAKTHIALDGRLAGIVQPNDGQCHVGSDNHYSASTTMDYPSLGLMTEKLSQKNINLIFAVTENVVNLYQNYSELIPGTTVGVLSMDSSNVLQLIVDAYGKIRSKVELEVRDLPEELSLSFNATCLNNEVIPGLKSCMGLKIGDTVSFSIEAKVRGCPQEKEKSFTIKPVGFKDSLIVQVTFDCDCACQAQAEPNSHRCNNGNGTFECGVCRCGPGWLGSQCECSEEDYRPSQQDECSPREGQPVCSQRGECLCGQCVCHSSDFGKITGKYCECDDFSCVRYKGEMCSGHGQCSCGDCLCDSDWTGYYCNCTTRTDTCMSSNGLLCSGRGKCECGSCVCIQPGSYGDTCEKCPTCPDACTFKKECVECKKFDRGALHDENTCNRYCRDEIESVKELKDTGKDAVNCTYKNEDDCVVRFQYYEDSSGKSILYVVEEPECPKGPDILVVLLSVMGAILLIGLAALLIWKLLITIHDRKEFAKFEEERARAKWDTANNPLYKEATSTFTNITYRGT
Integrin alpha-V/beta-3, sequence (P06756 31-889 limits assumed): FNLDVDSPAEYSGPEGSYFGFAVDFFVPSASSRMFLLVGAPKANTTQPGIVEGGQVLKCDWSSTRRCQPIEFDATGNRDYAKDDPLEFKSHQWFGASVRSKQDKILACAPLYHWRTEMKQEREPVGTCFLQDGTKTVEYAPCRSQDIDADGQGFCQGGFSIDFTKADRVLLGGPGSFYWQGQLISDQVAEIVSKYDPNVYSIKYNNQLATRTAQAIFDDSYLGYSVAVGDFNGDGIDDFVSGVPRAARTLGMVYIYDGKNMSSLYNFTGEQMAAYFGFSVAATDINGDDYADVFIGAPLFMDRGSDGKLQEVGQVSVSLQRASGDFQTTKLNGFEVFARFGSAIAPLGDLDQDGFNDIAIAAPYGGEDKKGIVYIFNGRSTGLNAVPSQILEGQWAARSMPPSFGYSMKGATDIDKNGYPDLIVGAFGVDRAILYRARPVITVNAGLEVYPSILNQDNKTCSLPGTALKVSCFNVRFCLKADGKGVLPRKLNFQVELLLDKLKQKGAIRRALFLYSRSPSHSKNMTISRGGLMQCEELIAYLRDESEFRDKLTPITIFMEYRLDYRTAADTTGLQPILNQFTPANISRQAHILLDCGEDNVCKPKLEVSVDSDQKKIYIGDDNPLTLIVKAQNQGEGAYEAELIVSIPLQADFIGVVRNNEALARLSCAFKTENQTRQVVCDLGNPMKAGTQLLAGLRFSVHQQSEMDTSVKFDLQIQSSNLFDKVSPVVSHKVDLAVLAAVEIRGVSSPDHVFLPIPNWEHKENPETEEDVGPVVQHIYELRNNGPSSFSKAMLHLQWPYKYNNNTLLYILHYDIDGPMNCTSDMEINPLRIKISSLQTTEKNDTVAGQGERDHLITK
Integrin alpha-V/beta-3, sequence (P06756 891-1048 limits assumed): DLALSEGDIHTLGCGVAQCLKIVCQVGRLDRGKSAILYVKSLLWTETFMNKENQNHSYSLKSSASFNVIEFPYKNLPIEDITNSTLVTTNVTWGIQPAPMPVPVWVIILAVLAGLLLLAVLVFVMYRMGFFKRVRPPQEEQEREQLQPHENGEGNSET
Cyclin-dependent kinase 5/CDK5 activator 1, sequence (Q00535 whole entry): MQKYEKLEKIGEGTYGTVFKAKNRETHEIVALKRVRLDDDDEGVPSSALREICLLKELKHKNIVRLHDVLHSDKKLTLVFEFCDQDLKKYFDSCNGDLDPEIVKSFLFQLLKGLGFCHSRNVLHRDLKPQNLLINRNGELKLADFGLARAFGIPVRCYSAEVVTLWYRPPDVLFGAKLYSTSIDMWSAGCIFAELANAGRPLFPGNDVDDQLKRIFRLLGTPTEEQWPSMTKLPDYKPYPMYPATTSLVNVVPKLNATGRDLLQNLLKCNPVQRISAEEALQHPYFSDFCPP
Cyclin-dependent kinase 5/CDK5 activator 1, sequence (Q15078 whole entry, further chain): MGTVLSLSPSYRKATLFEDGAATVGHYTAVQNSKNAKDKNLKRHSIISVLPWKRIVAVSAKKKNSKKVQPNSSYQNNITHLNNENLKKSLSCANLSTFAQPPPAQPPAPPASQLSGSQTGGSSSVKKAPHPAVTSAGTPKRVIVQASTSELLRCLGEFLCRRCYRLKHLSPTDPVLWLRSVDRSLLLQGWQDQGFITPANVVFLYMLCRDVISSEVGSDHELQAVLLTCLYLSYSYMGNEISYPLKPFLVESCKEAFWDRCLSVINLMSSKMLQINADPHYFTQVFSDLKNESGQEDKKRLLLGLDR
CDK9/Cyclin T, sequence (O60563 whole entry): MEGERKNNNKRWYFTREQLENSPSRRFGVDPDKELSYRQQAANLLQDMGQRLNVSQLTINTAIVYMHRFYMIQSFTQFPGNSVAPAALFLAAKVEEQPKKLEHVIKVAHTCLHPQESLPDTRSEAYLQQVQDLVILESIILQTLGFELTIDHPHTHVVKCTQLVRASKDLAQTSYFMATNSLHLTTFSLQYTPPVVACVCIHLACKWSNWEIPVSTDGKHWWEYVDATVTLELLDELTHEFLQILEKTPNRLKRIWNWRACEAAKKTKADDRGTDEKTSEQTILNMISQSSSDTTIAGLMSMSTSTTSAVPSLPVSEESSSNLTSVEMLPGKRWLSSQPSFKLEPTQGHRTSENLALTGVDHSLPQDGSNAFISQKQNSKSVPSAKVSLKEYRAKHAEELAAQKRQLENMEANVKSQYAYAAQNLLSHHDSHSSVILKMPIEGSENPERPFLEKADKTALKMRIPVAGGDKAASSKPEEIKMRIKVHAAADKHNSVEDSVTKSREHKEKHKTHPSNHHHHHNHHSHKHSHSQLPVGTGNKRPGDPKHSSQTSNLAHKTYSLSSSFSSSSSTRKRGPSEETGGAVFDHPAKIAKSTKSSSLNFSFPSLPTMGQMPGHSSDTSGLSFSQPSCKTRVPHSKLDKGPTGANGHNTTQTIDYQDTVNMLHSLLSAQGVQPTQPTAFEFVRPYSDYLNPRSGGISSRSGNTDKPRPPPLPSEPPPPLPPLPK
CDK9/Cyclin T, sequence (P50750 whole entry): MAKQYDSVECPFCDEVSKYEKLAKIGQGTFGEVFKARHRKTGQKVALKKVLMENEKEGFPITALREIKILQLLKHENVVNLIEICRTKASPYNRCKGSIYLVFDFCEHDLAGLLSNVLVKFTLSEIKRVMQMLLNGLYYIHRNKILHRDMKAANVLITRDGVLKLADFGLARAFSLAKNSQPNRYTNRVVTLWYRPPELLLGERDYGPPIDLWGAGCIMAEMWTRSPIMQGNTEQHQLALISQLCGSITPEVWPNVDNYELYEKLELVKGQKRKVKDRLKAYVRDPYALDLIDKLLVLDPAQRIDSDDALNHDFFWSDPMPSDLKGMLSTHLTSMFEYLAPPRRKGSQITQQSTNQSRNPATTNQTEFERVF
CDK9/Cyclin T, sequence (O60583 whole entry, further chain): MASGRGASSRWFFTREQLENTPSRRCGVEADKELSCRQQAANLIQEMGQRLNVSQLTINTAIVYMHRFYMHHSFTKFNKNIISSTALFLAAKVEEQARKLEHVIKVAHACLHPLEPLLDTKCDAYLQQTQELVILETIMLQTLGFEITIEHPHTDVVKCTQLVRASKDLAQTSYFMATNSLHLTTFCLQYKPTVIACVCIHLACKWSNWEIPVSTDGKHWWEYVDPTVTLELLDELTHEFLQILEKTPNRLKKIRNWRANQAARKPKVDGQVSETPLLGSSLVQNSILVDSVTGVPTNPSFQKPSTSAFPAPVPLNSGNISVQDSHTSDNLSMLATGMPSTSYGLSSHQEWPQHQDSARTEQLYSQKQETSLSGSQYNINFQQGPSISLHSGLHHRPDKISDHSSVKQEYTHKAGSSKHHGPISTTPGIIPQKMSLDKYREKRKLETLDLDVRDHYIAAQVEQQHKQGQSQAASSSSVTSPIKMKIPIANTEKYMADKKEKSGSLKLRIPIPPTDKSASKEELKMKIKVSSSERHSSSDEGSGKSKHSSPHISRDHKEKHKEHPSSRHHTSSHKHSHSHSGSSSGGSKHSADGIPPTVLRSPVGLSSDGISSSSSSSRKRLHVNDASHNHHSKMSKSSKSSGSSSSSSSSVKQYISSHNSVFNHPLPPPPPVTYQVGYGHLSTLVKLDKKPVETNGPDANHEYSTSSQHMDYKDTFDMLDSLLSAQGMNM
Glycogen synthase kinase-3 beta, sequence (P18266 whole entry): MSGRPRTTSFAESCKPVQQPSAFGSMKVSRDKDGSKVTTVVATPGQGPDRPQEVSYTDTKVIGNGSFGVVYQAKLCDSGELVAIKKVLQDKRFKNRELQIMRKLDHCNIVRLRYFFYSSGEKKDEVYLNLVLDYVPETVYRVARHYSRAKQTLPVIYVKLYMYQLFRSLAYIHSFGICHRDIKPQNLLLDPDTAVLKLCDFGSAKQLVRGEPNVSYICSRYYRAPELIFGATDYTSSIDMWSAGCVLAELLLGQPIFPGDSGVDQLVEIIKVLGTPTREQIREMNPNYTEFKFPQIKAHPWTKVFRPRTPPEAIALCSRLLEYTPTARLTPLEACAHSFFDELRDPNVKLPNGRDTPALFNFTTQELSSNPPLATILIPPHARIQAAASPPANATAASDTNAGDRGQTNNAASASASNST
Aurora kinase B (Homo sapiens), sequence (Q96GD4 whole entry): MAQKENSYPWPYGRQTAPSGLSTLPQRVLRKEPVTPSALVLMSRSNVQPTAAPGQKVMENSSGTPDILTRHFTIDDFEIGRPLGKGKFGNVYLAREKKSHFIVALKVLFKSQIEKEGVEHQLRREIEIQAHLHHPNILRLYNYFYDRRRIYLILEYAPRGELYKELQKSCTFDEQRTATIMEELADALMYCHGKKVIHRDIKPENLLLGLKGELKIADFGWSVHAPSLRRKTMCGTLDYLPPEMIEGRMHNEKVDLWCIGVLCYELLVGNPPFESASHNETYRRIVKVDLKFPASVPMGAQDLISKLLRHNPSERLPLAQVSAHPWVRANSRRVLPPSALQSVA

- IC50 [2]: 6 µM
- Selectivity Index [3]: 1.4
SMILES: O=C1Cc2c([nH]c3ccc(Br)cc23)-c2cccnc2N1

- IC50 [1]: > 10 µM
- IC50 [2]: 9.12 µM
SMILES: CCNC1=NC(=O)/C(=C2\CCNC(=O)c3[nH]c(Br)c(Br)c32)N1

- Ratio IC50 (Homo sapiens [4]): 111
SMILES: COc1ccc(-c2cc3c([nH]2)C(=O)NCC/C3=C2/NC(N)=NC2=O)cc1OC

- Ratio IC50 (Homo sapiens [4]): 66
SMILES: NC1=NC(=O)/C(=C2\CCNC(=O)c3[nH]c(-c4ccccc4)cc32)N1

- IC50 [5]: > 100 µM
- IC50 [6]: > 100 µM
- IC50 [7]: 38 µM
- IC50 [8]: > 1000 µM
- IC50 [9]: > 1000 µM
SMILES: O=C1Cc2c([nH]c3ccc(Br)cc23)-c2ccccc2N1 [KENPAULLONE]

- inhibition [11]: 78%
SMILES: CCOC(=O)c1[nH]cc2c1-c1[nH]c3ccccc3c1C(=O)NC2

- Ratio IC50 (Homo sapiens [4]): 32
SMILES: O=C1N=C(NCc2ccccc2)N/C1=C1/CCNC(=O)c2[nH]c(-c3ccccc3)cc21

- IC50 [2]: 0.075 µM
SMILES: O=C1NCC/C(=N\Nc2ccc(Cl)cn2)c2c1[nH]c1ccc(F)cc21

- IC50 [1]: 4 µM
- IC50 (Protein kinase C (PKC)): 9 µM
- IC50 (Casein kinase I): 4.5 µM
- IC50 [2]: 7 µM
SMILES: O=C1NC(=O)/C(=C2\CCNC(=O)c3[nH]c(Br)cc32)N1 [SPONGIACIDIN D]

- Ratio IC50 (Homo sapiens [4]): 38
SMILES: CNC1=NC(=O)/C(=C2\CCNC(=O)c3[nH]c(-c4ccccc4)cc32)N1

- inhibition (Homo sapiens [15]): 50%
- inhibition [16]: 50%
- inhibition [17]: 50%
- inhibition [18]: 50%
- inhibition [19]: 50%
- inhibition [20]: 50%
SMILES: CCOC(=O)c1cc2c([nH]1)-c1[nH]c3ccccc3c1C(=O)NC2

- IC50 [21]: > 1 µM
- Ratio IC50 (Homo sapiens [4]): > 64
SMILES: CCCNC1=NC(=O)/C(=C2\CCNC(=O)c3[nH]c(-c4ccccc4)cc32)N1

- IC50 [10]: 0.04 µM
SMILES: NCCCCOc1ccc2c(c1)-c1[nH]c3ccc(Br)cc3c1CC(=O)N2

- IC50 [5]: > 100 µM
- IC50 [6]: > 10 µM
- IC50 [7]: > 10 µM
- IC50 [8]: 7 µM
- IC50 [9]: > 100 µM
SMILES: O=C1Cc2c([nH]c3ccc([N+](=O)[O-])cc23)-c2ccccc2N1 [ALSTERPAULLONE]

- IC50 [1]: 0.5 µM
- IC50 [13]: 0.5 µM
SMILES: N#Cc1ccc2[nH]c3c(c2c1)CC(=O)Nc1cccnc1-3 [CAZPAULLONE]

- IC50 [2]: 0.012 µM
SMILES: O=C1NCC/C(=N\Nc2cccnc2Cl)c2c1[nH]c1ccc(F)cc21

- IC50 [2]: 0.012 µM
SMILES: O=C1NCC/C(=N\Nc2cccnc2)c2c1[nH]c1ccc(F)cc21

- IC50 [1]: 2.1 µM
- IC50 (Casein kinase I): > 10 µM
SMILES: O=C1Cc2c([nH]c3ccncc23)-c2ccccc2N1

- IC50 [2]: 0.12 µM
SMILES: O=C1Cc2c([nH]c3ccc(Br)cc23)-c2sccc2N1

- IC50 [1]: > 10 µM
- IC50 [13]: > 10 µM
- IC50 (Casein kinase I): > 10 µM
- IC50 [2]: > 10 µM
- IC50 (CDK9/Cyclin T): 7.4 µM
- IC50 [14]: > 10 µM
SMILES: O=C1Cc2c([nH]c3cc[n+]([O-])cc23)-c2ccccc2N1

- IC50 [2]: 10.4 µM
SMILES: O=C1NCC/C(=N\Nc2ccccn2)c2c1[nH]c(Br)c2Br

Continued, compound first:

SMILES: NC1=NC(=O)/C(=C2\CCNC(=O)c3[nH]c4ccc(Cl)cc4c32)N1
- IC50 [1]: 2.3 µM
- IC50 [2]: 0.191 µM

SMILES: CC(=O)NC1=NC(=O)/C(=C2\CCNC(=O)c3[nH]c(Br)c(Br)c32)N1
- IC50 [1]: 1.5 µM
- IC50 [2]: 0.533 µM

SMILES: NC1=NC(=O)/C(=C2\CCNC(=O)c3[nH]cc(Br)c32)N1
- IC50 [1]: 1.5 µM
- IC50 [2]: 0.079 µM

SMILES: Nc1ncc(C2=CCNC(=O)c3[nH]c(Br)c(Br)c32)[nH]1 [STEVENSINE]
- EC50 (L5178Y): 3.5 µg/mL (≈ 9.04 µM)

SMILES: NC1=NC(=O)/C(=C2\CCNC(=O)c3[nH]c(Cl)c(Cl)c32)N1
- IC50 [1]: 0.22 µM
- IC50 [2]: 0.062 µM

SMILES: O=C1Nc2ccccc2/C1=C1/Nc2ccccc2/C1=N\O
- IC50 [10]: 0.022 µM

SMILES: Cc1nnc2n1-c1ccccc1C(c1ccc(Cl)cc1)=C[C@@H]2CC(=O)Nc1ccc2c(c1)NC(=O)C2
- IC50 (MOLM-13): 0.17 µM
- IC50 (LAPC4): 0.08 µM

SMILES: O=c1[nH]c2ccccc2c2c1[nH]c1ccccc12
- IC50 (KB 3-1): 6.5 µM

SMILES: Nc1ncc(/C=C/CNC(=O)c2cc(Br)c(Br)[nH]2)[nH]1 [OROIDIN]
- inhibition at 50 µM [12]: 50%

SMILES: O=C1NCc2ccccc2-c2c1[nH]c1ccccc21
- IC50 (MCF7): 0.6 µM
- IC50 (MDA-MB-231): 0.6 µM

SMILES: NC1=NC(=O)/C(=C2\CCNC(=O)c3[nH]c4ccc(F)cc4c32)N1
- IC50 [1]: 0.55 µM
- IC50 [2]: 0.177 µM

SMILES: Nc1ncc2c(n1)CNC(=O)c1[nH]c(Br)c(Br)c1-2
- EC50 (L5178Y): 9 µg/mL (≈ 24.1 µM)

SMILES: CCOC(=O)C[C@H]1C=C(c2ccc(Cl)cc2)c2ccccc2-n2c(C)nnc21
- IC50 (MOLM-13): 0.12 µM
- IC50 (LAPC4): 0.08 µM

SMILES: O=C1Cc2c(-c3ccccc3)cc(-c3ccc(Cl)cc3)nc2-c2ccccc2N1
- GI50 (786-0): 1.7 µM

SMILES: O=C1NCCCc2ccccc2-c2c1[nH]c1ccccc21
- IC50 (KB 3-1): 8 µM

SMILES: COc1ccc2c(c1)C(CC(=O)O)CCC(=O)N2CC(=O)NC[C@H]1CC[C@H](Nc2nc3ccccc3[nH]2)CC1 (some centres undefined)
- IC50 (Integrin alpha-V/beta-3): 0.26 nM

SMILES: O=C1Cc2c([nH]c3cc[n+](Cc4ccccc4)cc23)-c2ccccc2N1.[Br-]
- IC50 [13]: 6.2 µM
- IC50 (Casein kinase I): > 10 µM
- IC50 [2]: 7.3 µM
- IC50 (CDK9/Cyclin T): 0.24 µM
- IC50 [14]: > 10 µM

SMILES: O=C(O)CC1CCC(=O)N(CC(=O)NC[C@H]2CC[C@H](Nc3nc4ccccc4[nH]3)CC2)c2ccccc21 (some centres undefined)
- IC50 (Integrin alpha-V/beta-3): 0.04 nM

SMILES: NC1=NC(=O)/C(=C2\CCNC(=O)c3[nH]c4ccc(Br)cc4c32)N1
- IC50 [1]: 1 µM
- IC50 [2]: 0.213 µM

SMILES: O=C1Cc2c(-c3ccccc3)cc(-c3ccco3)nc2-c2ccccc2N1
- GI50 (786-0): 6.6 µM

SMILES: NC1=NC(=O)/C(=C2\CCNC(=O)c3[nH]c(Br)c(Br)c32)N1
- IC50 [1]: 0.53 µM
- IC50 [2]: 0.056 µM

SMILES: O=C1NC(=O)/C(=C2\CCNC(=O)c3[nH]ccc32)N1 [SPONGIACIDIN C]
- IC50 (Protein kinase C (PKC)): 22 µM

SMILES: O=C(O)CC1CCC(=O)N(CC(=O)NCc2ccc(Nc3nc4ccccc4[nH]3)cc2)c2ccccc21 (centres undefined)
- IC50 (Integrin alpha-V/beta-3): 0.5 nM

SMILES: COc1ccc2c3c([nH]c2c1)C(=O)NCc1ccccc1-3
- IC50 (MCF7): 4 µM
- IC50 (MDA-MB-231): 4 µM

SMILES: O=C1Cc2c(-c3ccco3)cc(-c3ccccc3)nc2-c2ccccc2N1
- GI50 (786-0): 5.5 µM

SMILES: Cc1nnc(C[C@H]2C=C(c3ccc(Cl)cc3)c3ccccc3-n3c(C)nnc32)o1
- IC50 (MOLM-13): 0.12 µM
- IC50 (LAPC4): 0.04 µM

SMILES: NC1=NC(=O)/C(=C2\CCNC(=O)c3[nH]c4ccccc4c32)N1
- IC50 [1]: 0.8 µM
- IC50 [2]: 0.177 µM
- IC50 (THP-1 [22]): 3.5 µM
- IC50 (THP-1 [23]): 8.2 µM
- Ratio IC50 (Homo sapiens [4]): 29
